Data as given in patent US20170105947A1, “Appetite Suppressant Composition” (priority 2015, published 2017).
“Also recorded” adds a separate entry of the source.

Key:
[1] = rats vs human intake of about 350 ug/kg/day; cited from earlier work
[2] = 13 wk, rat, cited from earlier work
food preference of dogs = type: in vivo; conditions: food containing 2,500 ppm vs untreated control
Text: During this experience non-encapsulated trans-2-hexenal in combination with other chemicals were applied to feed.

[3] = in vivo; cited from earlier work
gastric emptying = conditions: oral administration of 50-100 mg/kg, rats; cited from earlier work
rat intestinal cells = conditions: added to rat intestinal cells / lumen of the intestine; cited from earlier work

CCC/C=C/C=O [trans-2-hexenal]
toxic levels in rats relative to normal intake by humans [1]: 30 times | body weight and intake ([2]; 4000 ppm in diet): no significant reduction; also recorded: did not significantly affect feed intake or body weight | changes in hematological parameters or organ weights ([2]; dietary levels 0, 260, 640, 1600 or 4000 ppm): did not induce any changes | food preference (food preference of dogs): dogs preferred the untreated control

CCCCCCCCCCC[C@@H](C[C@@H]1OC(=O)[C@H]1CCCCCC)OC(=O)[C@H](CC(C)C)NC=O [Orlistat, tetrahydrolipstatin]
known side effects [3]: steatorrhea, fecal incontinence, frequent bowel movements and urgency, compromised absorption of fat-soluble vitamins and nutrients, increased appetite and diminished effectiveness over time

CCCCC/C=C/C=C/C=O [trans, trans-2,4-decadienal]
gastric emptying (gastric emptying): reduced gastric emptying | level of CCK in vitro (rat intestinal cells): increased the level of CCK
